Data reported in article PMC8453635, “Piperidine Azasugars Bearing Lipophilic Chains: Stereoselective Synthesis and Biological Activity as Inhibitors of Glucocerebrosidase (GCase)” (The Journal of Organic Chemistry, 2021).
Entries after “also recorded” stand apart in the source; their conditions may differ.

Target: T1, GCase in fibroblasts bearing the N370S/RecNcil mutation (Homo sapiens, UniProt P04062, A495P/L483P/N409S)
T1 construct: fibroblasts derived from Gaucher patients bearing the N370S/RecNcil and L444P/L444P mutations; host or cells: fibroblasts from Gaucher disease patients, N370S/RecNcil
T1 sequence (P04062 40-536 N409S): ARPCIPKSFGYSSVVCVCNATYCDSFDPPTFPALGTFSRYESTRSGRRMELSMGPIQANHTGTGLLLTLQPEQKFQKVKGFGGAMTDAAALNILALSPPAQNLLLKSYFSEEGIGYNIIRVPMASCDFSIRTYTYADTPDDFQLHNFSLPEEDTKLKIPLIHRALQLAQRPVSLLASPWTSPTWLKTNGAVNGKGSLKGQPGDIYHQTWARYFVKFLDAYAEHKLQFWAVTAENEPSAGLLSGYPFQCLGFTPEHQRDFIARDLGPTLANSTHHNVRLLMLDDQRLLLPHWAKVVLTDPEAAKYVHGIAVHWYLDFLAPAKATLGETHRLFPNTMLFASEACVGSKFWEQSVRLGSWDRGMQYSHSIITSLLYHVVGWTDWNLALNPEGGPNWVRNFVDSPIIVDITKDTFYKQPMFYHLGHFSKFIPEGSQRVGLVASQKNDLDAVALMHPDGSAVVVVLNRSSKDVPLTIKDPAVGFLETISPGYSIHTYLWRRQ
Test: Pharmacological chaperoning activity in N370S/RecNcil Gaucher fibroblasts
Type: cell-based
Details: for GCase enzymatic activity rescue: 4 days incubation; for cell viability: 50 µM and 100 µM, 4 days
Experimental: The ability of compounds 14 and 15 to enhance the activity of GCase after incubation (4 days) with fibroblasts bearing the selected mutations was evaluated. The experiments were performed using fibroblasts derived from Gaucher patients bearing the N370S/RecNcil and L444P/L444P mutations (see the Supporting Information section).
Fibroblasts with the N370S/RecNcil (or L444P/L444P) mutation from Gaucher disease patients were obtained from the “Cell line and DNA Biobank from patients affected by Genetic Diseases” (Gaslini Hospital, Genova, Italy). Fibroblast cells (15.0 × 10^4) were seeded in T25 flasks with DMEM supplemented with fetal bovine serum (10%), penicillin/streptomycin (1%), and glutamine (1%) and incubated at 37 °C with 5% CO2 for 24 h. The medium was removed, and fresh medium containing the compounds (14, 15 and 33·HCl) was added to the cells and incubated for 4 days. The medium was removed, and the cells were washed with PBS and detached with trypsin to obtain cell pellets, which were washed four times with PBS, frozen, and lysed by sonication in water. Enzyme activity was measured as reported above. Reported data are mean S.D. (n = 2).
Pharmacological chaperoning activity
Figure S50. Fibroblasts derived from GD patients bearing N370S/RecNcil mutations were incubated without (control, ctrl) or with 7 different concentrations (10 nM, 50 nM, 100 nM, 1 μM, 10 μM, 50 μM, 100 μM) of compounds 14 and 15. After 4 days, the flasks containing cells incubated with 50 µM and 100 µM […]
other concentrations, the GCase activity was determined in lysates from treated fibroblasts. Reported data are mean S.D. (n=2).
(also on this page, place not known: beta glucosidase activity (nmol/mg/h) beta glucosidase activity (nmol/mg/h)) […]
Figure S51. Fibroblasts derived from GD patients bearing N370S/RecNcil mutations were incubated without (control, ctrl) or with […] different concentrations (5 nM, 10 nM, 100 nM, 1 μM, 10 μM, 30 μM) of compound 33.HCl. After 4 days, the GCase activity was determined in lysates from treated fibroblasts. Reported […]
(also on this page, place not known: beta glucosidase activity (nmol/mg/h))

## CCCCCCCC[C@@H]1[C@@H](O)[C@H](O)[C@H](O)CN1C(CCCCCCC)CCCCCCC.Cl [compound 33·HCl, (2R,3R,4R,5R)-2-Octyl-1-(pentadecan-8-yl)-piperidine-3,4,5-triol Hydrochloride]
5 nM to 30 μM
  GCase enzymatic activity rescue: no enzymatic activity rescue; also recorded: no GCase activity enhancements

## CCCCCCCC[C@H]1[C@@H](O)[C@H](O)[C@H](O)CN1CCCCCCCC [compound 14, (2S,3R,4R,5R)-1,2-Dioctylpiperidine-3,4,5-triol]
  cell viability: low cell viability
5 nM to 10 μM
  GCase enzymatic activity rescue: no enzymatic activity rescue; also recorded: no GCase activity enhancements

## CCCCCCCC[C@@H]1[C@@H](O)[C@H](O)[C@H](O)CN1CCCCCCCC [compound 15, (2R,3R,4R,5R)-1,2-Dioctylpiperidine-3,4,5-triol]
  cell viability: low cell viability
5 nM to 10 μM
  GCase enzymatic activity rescue: no enzymatic activity rescue; also recorded: no GCase activity enhancements
